Source: US12302902B2, “Antimicrobial compositions, including antimicrobial hydrogels, effective against mature biofilms” (Cormedix Inc., priority 2017, dated 2025)

How the values were obtained:
[1] = tested on: Microbes; conditions: cited from earlier work
[2] = tested on: P. aeruginosa; conditions: cited from earlier work
[3] = tested on: Pseudomonas aeruginosa (PAO1) biofilm; assay: Ex vivo biofilm porcine skin explant model, bacterial load after treatment with hydrogel; type: cell-based; conditions: 3 day cultured PA01 explants, treated with 1 ml solution, cell count Day 4

Q: With `O=S1(=O)CCN(CN2CCS(=O)(=O)NC2)CN1` [Taurolidine, bis(1,1-dioxoperhydro-1,2,4-thiadiazinyl-4)-methane] as the compound, how does the “destruction time in vitro” value [1] read?
A: 30 min

Q: Which “reduction of biofilm cell counts” value ([2]; P. aeruginosa biofilm, tobramycin levels far in excess of the MIC) does the source give for `NC[C@H]1O[C@H](O[C@H]2[C@H](O)[C@@H](O[C@H]3O[C@H](CO)[C@@H](O)[C@H](N)[C@H]3O)[C@H](N)C[C@@H]2N)[C@H](N)C[C@@H]1O` [tobramycin] here?
A: approximately 2 logs

Q: What about the “decrease in planktonic cells” value ([2]; P. aeruginosa planktonic cells, same dosage) of the same compound?
A: > 8 log

Q: Which “PA01 AVG (average CFU/ml of sonicated explant bacterial suspension)” value [3] does the source give for gentamicin here?
A: 3.45E+07 CFU/ml
